The values that follow come from ChEMBL document CHEMBL1126010, “Conformationally restrained analogues of pravadoline: nanomolar potent, enantioselective, (aminoalkyl)indole agonists of the cannabinoid receptor” (J Med Chem, 1992).

By ED50 is commonly meant the midpoint of the dose-response relation. High values mean a need for a large dose, low ones an effect at a small dose. By IC50 is commonly meant the midpoint of a concentration-inhibition curve. A high value points to lower potency. In general, inhibition refers to the relative decrease from the control value, in per cent. As a reminder, the inhibition in vivo is how much of the control response was suppressed. Read a low inhibition in vivo as a response near the control.

Assay [1] relates to Mus musculus. The assay can be described thus: In vivo antinociceptive effect was tested in the mouse acetylcholine writhing assay after po administration. The assay is classed as functional.
For assay [2], the species on record is Mus musculus. The assay can be described thus: In vitro inhibition of electrically stimulated contractions of isolated mouse vas deferens. The assay is classed as functional.
For assay [3], the species on record is Mus musculus. Put plainly: Inhibitory activity against PG synthesis was measured in mouse brain microsomes at 30 uM. The assay is classed as functional.
The target in a further assay is Cannabinoid receptor (Rattus norvegicus, UniProt Q9QZN9+P20272). The assay can be described thus: Concentration required to displace 50% of 0.5 nM [3H](aminoalkyl)indole binding to cannabinoid receptor in rat cerebellum membranes. The assay is classed as cell membranes, Membrane.
The species named for assay [4] is Mus musculus. Put plainly: Inhibitory activity against PG synthesis was measured in mouse brain microsomes. The assay is classed as functional.
The target in assay [5] is Cannabinoid receptor (Rattus norvegicus) (UniProt Q9QZN9+P20272). As to conditions: Cerebellum; Membrane; at 1 µM.
Description: Inhibition of 0.5 nM [3H](Aminoalkyl)indole binding to cannabinoid receptor in rat cerebellum membranes at 1 uM
For assay [6], the system named is Mus musculus. Put plainly: In Vivo antinociceptive effect was tested in the mouse acetylcholine writhing assay after 100 mg/kg po administration. The assay is classed as functional. (In writhing tests, fewer writhes than in controls are read as antinociception.)
Assay [7] concerns Mus musculus. Put plainly: (§1) in vivo antinociceptive effect was tested in the mouse acetylcholine writhing assay after iv administration. The assay is classed as functional, organism-based.
Assay [8] deals with Mus musculus. The assay can be described thus: In vivo antinociceptive effect was tested in the mouse acetylcholine writhing assay after 100 mg/kg po administration. The assay is classed as functional.
In assay [9] the test system is Mus musculus. The assay is described as §1. The assay is classed as functional.
The species named for assay [10] is Mus musculus. Put plainly: In vitro inhibition of electrically stimulatedcontradions was measured on isolated mouse vas deferens at 10 uM. The assay is classed as functional.

Cannabinoid receptor (Rattus norvegicus), sequence (P20272 whole entry, looked up): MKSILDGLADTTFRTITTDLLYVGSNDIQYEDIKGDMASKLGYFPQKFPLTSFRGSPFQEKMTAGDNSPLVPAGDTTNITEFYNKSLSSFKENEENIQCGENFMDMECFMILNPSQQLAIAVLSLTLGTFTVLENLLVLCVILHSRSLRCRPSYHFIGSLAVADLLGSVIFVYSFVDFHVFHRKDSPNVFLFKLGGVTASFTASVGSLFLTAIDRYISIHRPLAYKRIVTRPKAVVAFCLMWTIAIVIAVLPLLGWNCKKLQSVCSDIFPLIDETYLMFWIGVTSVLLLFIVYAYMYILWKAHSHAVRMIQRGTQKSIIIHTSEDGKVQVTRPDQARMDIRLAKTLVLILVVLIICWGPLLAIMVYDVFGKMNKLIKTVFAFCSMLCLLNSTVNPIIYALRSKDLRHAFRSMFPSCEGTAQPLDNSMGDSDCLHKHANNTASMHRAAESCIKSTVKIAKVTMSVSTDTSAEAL
Cannabinoid receptor (Rattus norvegicus), sequence (Q9QZN9 whole entry, looked up): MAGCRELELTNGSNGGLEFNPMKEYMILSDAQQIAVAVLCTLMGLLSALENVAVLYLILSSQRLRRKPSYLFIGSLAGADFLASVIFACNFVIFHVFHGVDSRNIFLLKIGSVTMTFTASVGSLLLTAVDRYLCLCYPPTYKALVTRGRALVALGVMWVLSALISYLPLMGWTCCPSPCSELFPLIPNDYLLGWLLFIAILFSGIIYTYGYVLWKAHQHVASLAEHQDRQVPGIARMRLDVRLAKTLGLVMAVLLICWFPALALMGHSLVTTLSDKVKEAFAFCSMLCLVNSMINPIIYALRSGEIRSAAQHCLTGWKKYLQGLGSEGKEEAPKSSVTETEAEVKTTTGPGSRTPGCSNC

With `COc1ccc(C(=O)c2c3n(c4ccccc24)CCC3N2CCOCC2)cc1` (centres undefined), it took a dose of 91 mg/kg to reach the 50% effect level with Mus musculus [1] (ED50). Besides, the IC50 in the assay listed under Mus musculus [2] (Mus musculus) is over 10000 nM. In the assay filed under Mus musculus [3], the inhibition turned out to be 49%.
For the compound `COc1ccc(C(=O)c2c3n(c4ccccc24)CC(N2CCOCC2)C3)cc1` (centres undefined), the IC50 in the assay listed under Mus musculus [2] (Mus musculus) was over 10000 nM. In the assay filed under Mus musculus [3], the inhibition amounted to 18%.
`Cc1c(C(=O)c2cccc3c(Br)cc(Br)cc23)c2cccc3c2n1[C@H](CN1CCOCC1)CO3` came in with a concentration for half-maximal inhibition (IC50) on Cannabinoid receptor of 48.3 nM.
`Cc1c(C(=O)c2ccc3ncccc3c2)c2cccc3c2n1C(CN1CCOCC1)CO3` (centres undefined): the IC50 in the assay filed under Mus musculus [4] was determined as 26 µM; in the assay listed under Mus musculus [2] (Mus musculus) it was 21 nM; at Cannabinoid receptor, 132.5 nM.
Regarding `O=C(c1cccc2ccccc12)c1cn2c3c(cccc13)OCC2CN1CCOCC1` (centres undefined), the half-maximal inhibitory concentration (IC50) in the assay filed under Mus musculus [2] (Mus musculus) amounted to 2 nM; at Cannabinoid receptor, 7.37 nM.
In the case of `Cc1c(C(=O)c2ccc(Br)c3ccccc23)c2cccc3c2n1C(CN1CCOCC1)CO3` (centres undefined), the IC50 in the assay listed under Mus musculus [2] (Mus musculus) is 2.2 nM; at Cannabinoid receptor it was 2.32 nM.
On to `COc1ccc(C(=O)c2c(C)n3c4c(cccc24)OC[C@H]3CN2CCOCC2)cc1`, for which the IC50 came to 50 µM in the assay listed under Mus musculus [4], 44 nM in the assay listed under Mus musculus [2] (Mus musculus) and 106 nM at Cannabinoid receptor.
Regarding `COc1ccc(C(=O)c2c(C)n3c4c(cccc24)OC[C@@H]3CN2CCOCC2)cc1`, the IC50 is 30 µM in the assay filed under Mus musculus [4], over 10000 nM in the assay listed under Mus musculus [2] (Mus musculus) and 17500 nM at Cannabinoid receptor.
On to `C[C@H](CCCc1ccccc1)Oc1cc(O)c2c(c1)N[C@@H](C)[C@@H]1CC[C@@H](O)C[C@@H]21`, for which the results for the IC50 in the assay filed under Mus musculus [2] (Mus musculus) and on Cannabinoid receptor were 2.3 nM and 0.46 nM, respectively.
On to `COc1ccc2c(c1)c(CC(=O)O)c(C)n2C(=O)c1ccc(Cl)cc1` [INDOMETHACIN], for which the IC50 in the assay filed under Mus musculus [4] was 0.5 µM; in the assay listed under Mus musculus [2] (Mus musculus) it was over 10000 nM.
For `COc1ccc(C(=O)c2cn3c4c(cccc24)OCC3CN2CCOCC2)cc1` (centres undefined), the ED50 in the assay with Mus musculus [1] came to 2 mg/kg. Moreover, the IC50 was 45.5 nM in the assay listed under Mus musculus [2] (Mus musculus) and 249 nM at Cannabinoid receptor. The inhibition in assay [5] is -9%.
In the assay listed under Mus musculus [2], `Cc1c(C(=O)c2cccc3ccccc23)c2cccc3c2n1[C@H](CN1CCOCC1)CO3` (stereo in doubt; 21) [WIN-552122] displayed an IC50 of 6 nM.
With `COc1ccc(C(=O)c2c(C)n3c4c(cccc24)OCC3CN2CCOCC2)cc1` (centres undefined), in the assay on Mus musculus [6], testing at 100 mg/kg gave an inhibition in vivo of 30%. In addition, the IC50 in the assay on Mus musculus [7] came to 4 µM; in the assay filed under Mus musculus [4], 72 µM; in the assay filed under Mus musculus [2] (Mus musculus), 123 nM; at Cannabinoid receptor it was 152 nM.
`Cc1c(C(=O)c2cccc3ccccc23)c2cccc3c2n1[C@@H](CN1CCOCC1)CO3` returned an inhibition in vivo at 100 mg/kg in the assay with Mus musculus [6] of 10%. Further, the IC50 is 10 µM in the assay filed under Mus musculus [4] and over 10000 nM in the assay listed under Mus musculus [2] (Mus musculus).
In the case of `Cc1c(C(=O)c2cccc3ccccc23)c2cccc3c2n1[C@H](CN1CCOCC1)CO3` (stereo in doubt) [WIN-552122], the IC50 in the assay filed under Mus musculus [4] was 9 µM; in the assay listed under Mus musculus [2] it was 0.43 nM.
As for `COc1ccc(C(=O)c2c(C)n3c4c(cccc24)CC(N2CCOCC2)C3)cc1` (centres undefined), at 100 mg/kg the inhibition in vivo with Mus musculus [8] was 30%. Besides, the half-inhibitory concentration (IC50) in the assay filed under Mus musculus [2] (Mus musculus) is over 10000 nM. Also, the inhibition is 1.4% in assay [5] and 12% in the assay listed under Mus musculus [3].
In the case of `COc1ccc(C(=O)c2c3n(c4ccccc24)C(CN2CCOCC2)CC3)cc1` (centres undefined), the IC50 is 320 nM in the assay listed under Mus musculus [2] (Mus musculus) and 3053 nM on Cannabinoid receptor.
Consider `COc1ccc(C(=O)c2c(C)n(CCN3CCOCC3)c3ccccc23)cc1` [PRAVADOLINE], for which the ED50 in the assay on Mus musculus [1] is 26 mg/kg; in the assay with Mus musculus [9], 4 mg/kg. Also, the results for the IC50 in the assay filed under Mus musculus [4], in the assay listed under Mus musculus [2] (Mus musculus) and at Cannabinoid receptor were 5 µM, 453 nM and 3155 nM, respectively.
Take `CCc1c(C(=O)c2ccc(OC)cc2)c2cccc3c2n1C(CN1CCOCC1)CO3` (centres undefined): the inhibition at 10 µM in the assay listed under Mus musculus [10] stood at 28%. In addition, the inhibition in assay [5] stood at 27%.
For `Cc1c(C(=O)c2ccccc2F)c2cccc3c2n1C(CN1CCOCC1)CO3` (centres undefined), the IC50 stood at 42 µM in the assay filed under Mus musculus [4], 76 nM in the assay listed under Mus musculus [2] (Mus musculus) and 1426 nM at Cannabinoid receptor.
